{
  "source": "patent US8088819B2",
  "about": "“Derivatives of substituted 3-phenyl-1-(phenylthienyl)propan-1-ones and of 3-phenyl-1-(phenylfuranyl) propan-1-ones, preparation and use” (priority 2006, dated 2012)",
  "key": {"dyslipidemic E2/E2 mice": {"test_system": "dyslipidemic E2/E2 mice", "assay": "Plasma lipid assays and lipoprotein distribution in the E2/E2 mouse", "type": "in vivo", "description": "The antilipemic and HDL-cholesterol synthesis stimulating properties of the compounds according to the invention were evaluated in vivo by assay of the plasma lipids, analysis of the distribution of cholesterol and of triglycerides in the various plasma lipoprotein fractions and measurement of the expression of the target genes of the PPARs in the liver and skeletal muscle after treatment of dyslipidemic E2/E2 mice with compound 2.\nThe murine model used is the ApoE2/E2 type mouse, a transgenic mouse for the E2 isoform of human apolipoprotein E (Sullivan P M et al., 1998). In humans, this apolipoprotein, a constituent of the low and very low density lipoproteins (LDL-VLDL), occurs in three isoforms E2, E3 and E4. The E2 form has a mutation on an amino acid in position 158, which greatly weakens the affinity of this protein for the LDL receptor. The clearance of the VLDLs is accordingly almost zero. There is then accumulation of low-density lipoproteins and mixed hyperlipidemia called type III (high cholesterol and triglycerides).\nApo E2/E2 transgenic mice were kept under a cycle of light and darkness of 12/12 hours at a constant temperature of 20±3° C. After acclimation for one week, the mice were weighed and put into groups of 6 animals selected so that the distribution of their body weights and of their plasma lipid levels determined for the first time before the experiment are uniform. The test compounds were suspended in carboxymethylcellulose (Sigma C4888) and administered by intragastric force feeding, at a rate of once per day for 13 days at the chosen dose. The animals had free access to water and to food (standard diet). At the end of the experiment, the animals were anesthetized after fasting for 4 hours, a blood sample was taken using anticoagulant (EDTA), then the mice were weighed and euthanased. The plasma was separated by centrifugation at 3000 rev/min for 20 minutes, and the samples were stored at +4° C.\nThe various lipid fractions (VLDL, LDL, HDL) of the plasma were separated by gel filtration chromatography. The concentrations of cholesterol and of triglycerides were then measured in each fraction by enzyme assays (bioMérieux-Lyon-France) following the supplier's recommendations.\nThe plasma concentrations of total cholesterol were measured by enzyme assays (bioMérieux-Lyon-France) following the supplier's recommendations.\nThe low-density lipoproteins (VLDL and LDL) were precipitated with phosphotungstate. The precipitate was removed by centrifugation. The HDL-cholesterol present in the supernatant was quantified by enzyme assays (bioMérieux-Lyon-France) following the supplier's recommendations."}, "[1]": {"test_system": "target genes of the PPARs", "assay": "Expression of target genes of the PPARs in hepatic and muscle tissues of the db/db mouse, quantitative RT-PCR", "type": "in vivo", "conditions": "db/db mice; 50 mpk; 28 days", "description": "The efficacy of the compound according to the invention is also evaluated by measuring, in the hepatic and muscle tissues, the expression of genes involved in carbohydrate and lipid metabolism, and the dissipation of energy. The levels of expression of each gene are normalized relative to the level of expression of the reference genes 36B4 in the liver and 18S in the skeletal muscle. The induction factor, i.e. the ratio of the relative signal (induced by the compound according to the invention) to the mean of the relative values of the control group, is then calculated. The higher this factor, the greater the gene expression activating character of the compound. The final result is represented as the mean of the induction values in each experimental group.\nFemale db/db mice were kept under a cycle of light and darkness of 12/12 hours at a constant temperature of 20±3° C. After acclimation for one week, the mice were weighed and put in groups of 8 animals selected so that the distribution of their body weight and of their plasma lipid levels, determined for the first time before the experiment, are uniform. The test compounds were suspended in carboxymethylcellulose (Sigma C4888) and administered by intragastric force feeding, at a rate of once per day for 28 days at the chosen dose. The animals had free access to water and to food (standard diet). The food intake and the weight gain are recorded throughout the experiment. At the end of the experiment, the animals were anesthetized after fasting for 4 hours, a blood sample was taken using anticoagulant (EDTA), then the mice were weighed and euthanased. The plasma was separated by centrifugation at 3000 rev/min for 20 minutes, and the samples were stored at +4° C.\nSamples of hepatic and muscle tissues were taken and frozen immediately in liquid nitrogen and then stored at −80° C. for later analyses. […]\n1 μg of total RNA (quantified by UV spectrophotometry) was then reverse-transcribed to complementary DNA by reaction for 1 hour at 37° C. in a total volume of 30 μl containing buffer 1× (Invitrogen), 1.5 mM of DTT, 0.18 mM of dNTPs (Promega), 200 ng of pdN6 (Amersham), 30 U of RNase inhibitor (Promega) and 1 μl of MMLV-RT (Invitrogen).\nThe quantitative PCR experiments were carried out using the MyiQ Single-Color Real-Time PCR Detection System (Biorad, Marnes-la-Coquette, France) and were performed using the iQ SYBR Green Supermix kit following the supplier's recommendations, in 96-well plates, on 5 μL of diluted reverse-transcription reaction mixture with a hybridization temperature of 60° C. […]\nThe amount of fluorescence emitted is directly proportional to the amount of complementary DNA present at the start of the reaction and amplified during PCR. […] The relative expression levels of each target are thus determined using the efficacy curves obtained with the points in the range.\nThe levels of expression of the genes of interest were then normalized, […] relative to the level of expression of the reference gene 36B4 (whose specific primers are: sense primer: 5′-[…]-3′ (SEQ ID No. 19) and antisense primer: 5′-[…]-3′ (SEQ ID No. 20)), and in the muscle tissue relative to the level of expression of the reference gene 18S (whose specific primers are: sense primer: 5′-[…]-3′ (SEQ ID No. 21) and antisense primer: 5′-[…]-3′ (SEQ ID No. 22)). The induction factor was calculated for each sample. […]"}, "[2]": {"conditions": "50 mpk oral, 7 and 13 days, vs control animals"}},
  "data": [
    {"smiles": "CC(C)(Oc1ccc(CCC(=O)c2ccc(-c3ccc(C(F)(F)F)cc3)s2)c(Cl)c1Cl)C(=O)O", "note": "[Compound 2, 2-(2,3-dichloro-4-(3-oxo-3-(5-(4-(trifluoromethyl)phenyl)thien-2-yl)propyl)phenoxy)-2-methylpropanoic acid]", "values": [
      {"measurement": "plasma HDL-cholesterol level", "setting": "dyslipidemic E2/E2 mice; [2]", "value": "increased significantly"},
      {"measurement": "plasma total cholesterol level", "setting": "dyslipidemic E2/E2 mice; [2]", "value": "lowered significantly"},
      {"measurement": "level of triglycerides present in the VLDL", "setting": "dyslipidemic E2/E2 mice; 50 mpk, 13 days", "value": "lowered"},
      {"measurement": "plasma HDL-cholesterol level (distribution of cholesterol in plasma lipoprotein fractions)", "setting": "dyslipidemic E2/E2 mice; 50 mpk, 13 days", "value": "increased"},
      {"measurement": "plasma levels of LDL and VLDL (distribution of cholesterol in plasma lipoprotein fractions)", "setting": "dyslipidemic E2/E2 mice; 50 mpk, 13 days", "value": "significant decrease"},
      {"measurement": "expression of the gene coding for ACOX1 in the liver", "setting": "[1]", "value": "significant increase"},
      {"measurement": "expression of the gene coding for CPT1b in the skeletal muscle", "setting": "[1]", "value": "significant increase"},
      {"measurement": "expression of the gene coding for PDK4 in the liver", "setting": "[1]", "value": "significant increase"},
      {"measurement": "expression of the gene coding for PDK4 in the skeletal muscle", "setting": "[1]", "value": "significant increase"},
      {"measurement": "expression of the gene coding for UCP2 in the skeletal muscle", "setting": "[1]", "value": "significant increase"}
    ]}
  ]
}
